Data from paper PMC9446078 (Frontiers in Endocrinology, 2022).
Counter-ions that a name gives are not always drawn.

Columns and labels:
red blood cells = assay: Inhibition of sorbitol formation in erythrocytes; format: cell-based, human; conditions: at IC50 concentration; compared with glucose-induced sorbitol levels (30 mM glucose, 3 h)
Description: The method in brief is discussed below. Five milliliters of blood sample was obtained from a healthy volunteer on overnight fasting in heparinized tubes. Red blood cells were separated by centrifugation and washed three times with isotonic saline at 4°C. The washed RBC were suspended in Kreb’s ringer bicarbonate buffer, pH 7.4 (preequilibrated with 5% CO2), and incubated at 37°C in the presence of 5% CO2 for 3 h under normal (3.0 mM) and high glucose (30 mM) conditions. […] At the end of the incubation period, RBC was homogenized in nine volumes of 0.8 M perchloric acid. The homogenate was centrifuged at 5,000 × g at 4°C for 10 min, and the pH of the supernatant was adjusted to 3.5 with 0.5 M potassium carbonate. The sorbitol content of the supernatant was measured by fluorometric method as described previously ([14]) using a spectrofluorometer (Jasco-FP-6500).

[1] = tested on: HFF-1 (human dermal fibroblasts); assay: Scratch assay, fibroblast migration under high glucose; format: cell-based
Description: (§1) High blood glucose levels hamper the migration of human fibroblasts, endothelial cells, and keratinocytes that impair wound healing ([16]–[20]). […] The detailed protocol and cytotoxicity results are provided in the Supplementary File. An actively growing culture of HFF-1 (human dermal fibroblasts), Ea.hy926 (human endothelial cells), and HaCaT (human keratinocytes) cell lines in Dulbecco’s modified Eagle’s medium containing 25 mM glucose supplemented with 10% fetal bovine serum was prepared. The cells were counted through a hemocytometer and were seeded at a density of 0.08 × 10^6 (HFF-1), 0.1 × 10^6 (Ea.hy926), and 0.2 × 10^6 (HaCaT Cells) cells/well/ml of culture medium. The plates were incubated overnight followed by serum starvation for 24 h. Scratch wounds were made in a confluent monolayer by making a straight scratch in the center of the well using a sterile 200-µl pipette microtip. […] The kinetics of migration of the cells in the wound was recorded by phase-contrast microscopy. The experiment was carried out in duplicate cells for each concentration.

[2] = tested on: Ea.hy926 (human endothelial cells); assay: Scratch assay, endothelial cell migration under high glucose; format: cell-based
Description: as §1

[3] = tested on: HaCaT (human keratinocytes); assay: Scratch assay, keratinocyte migration under high glucose; format: cell-based
Description: as §1

[4] = MTT cytotoxicity in HaCaT; format: cell-based, human; conditions: human, HaCaT cells, 48 h, read-out: % Cytotoxicity w.r.t. untreated cells
Description: (§2) 1. HaCaT, HFF-1 and Ea.hy926 cells were counted and plated in 96 well plates at the density corresponding to 5 X 10^3 cells/well/180 μl of cell growth medium.
(§3) 2. The above cells were then incubated overnight under growth conditions of 37°C, 95 % Humidity, 5 % CO2.so as to allow the cell recovery and exponential growth.
(§4) 3. Following overnight incubation, the above cells were serum starved in DMEM (containing 25 mM glucose) supplemented with […] for 24 h.
(§5) 5. The Ea.hy926 cells were then incubated for 24 h and HaCaT and HFF-1 cells were incubated for 48 h in CO2 incubator at 37 °C, 5 % CO2 and 95 % humidity.
(§6) 6. Following incubation, the plates were taken out and 20 μl of 5 mg/ml of MTT 3-(4,5-dimethythiazol-2-yl)-2,5-diphenyl tetrazolium bromide solution was added to all the wells followed by additional incubation for 3 h at 37 °C. The supernatant was aspirated and 150 μl of DMSO was added to each well to dissolve formazan crystals. The absorbance of each well was then read at 540 nm using Synergy HT micro plate reader.
(§7) 7. The percentage cytotoxicity at each tested concentration was calculated using the following formula:
(§8) % Cytotoxicity = (1-X/R)*100

HaCaT cells = assay: MTT cytotoxicity in HaCaT; format: cell-based, human; conditions: all tested concentrations (0.01 to 1000 μM), <30% = non-cytotoxic
Description: as §2, §3, §4, §5, §6, §7, §8

[5] = MTT cytotoxicity in HFF-1; format: cell-based, human; conditions: human, HFF-1 cells, HFF-1, 48 h, read-out: % Cytotoxicity w.r.t. untreated cells
Description: as §2, §3, §4, §5, §6, §7, §8

HFF-1 cells = assay: MTT cytotoxicity in HFF-1; format: cell-based, human; conditions: HFF-1, all tested concentrations (0.01 to 1000 μM); <30% = non-cytotoxic
Description: as §2, §3, §4, §5, §6, §7, §8

[6] = MTT cytotoxicity in Ea.hy926; format: cell-based, human; conditions: human, Ea.hy926 cells, Ea.hy926, 24 h, read-out: % Cytotoxicity w.r.t. untreated cells
Description: as §2, §3, §4, §5, §6, §7, §8

Ea.hy926 cells = assay: MTT cytotoxicity in Ea.hy926; format: cell-based, human; conditions: Ea.hy926, all tested concentrations (0.01 to 1000 μM); <30% = non-cytotoxic
Description: as §2, §3, §4, §5, §6, §7, §8

Hanford miniature swine = assay: 12-week dermal toxicity study in miniature swine; format: in vivo
Description: A total of 40 Hanford miniature swine (20 male and 20 female) divided into four treatment groups were used for this study. A 12-week topical application of Galnobax 20% was carried out in the miniature swine wound healing model with twice-daily dosing. Six wounds (10 cm^2 each) of partial thickness were created on the dorsal region of all animals. Four wounds of each animal received twice-daily topical doses of either the vehicle or Galnobax gel, and the remaining two sites served as untreated comparative control wounds. Each group has four male and female miniature swine for the assessments and one each for the recovery period as given in Table 1 . Safety parameters in terms of ECG, clinical pathology, wound site evaluation, and toxicokinetics were performed during the study.

[7] = design: method as in PMID 2879662, PMID 7957532, PMID 6135794; conditions: approved (intravenous) dose; cited from earlier work
[8] = 1 and 10 µM, compared with control, high glucose
[9] = 100 and 500 µM compared with 1 and 10 µM

COC(=O)CCc1ccc(OCC(O)CNC(C)C)cc1 (stereo not shown) [Esmolol hydrochloride]
inhibition of sorbitol formation in red blood cells (red blood cells): 59%
migration of fibroblasts [1, 8]: enhanced the migration
migration of fibroblasts [1, 9]: lower migration
migration of endothelial cells [2, 8]: enhanced the migration
migration of endothelial cells [2, 9]: lower migration
migration of keratinocytes [3, 8]: enhanced the migration
migration of keratinocytes [3, 9]: lower migration
cytotoxicity at 48 h, 0.01 µM ([4]; 0.01 μM): -19.2%
cytotoxicity at 48 h, 0.1 µM ([4]; 0.1 μM): -8.02%
cytotoxicity at 48 h, 1 µM ([4]; 1 μM): -6.93%
cytotoxicity at 48 h, 10 µM ([4]; 10 μM): -14.8%
cytotoxicity at 48 h, 50 µM ([4]; 50 μM): -18.1%
cytotoxicity at 48 h, 100 µM ([4]; 100 μM): -18.5%
cytotoxicity at 48 h, 500 µM ([4]; 500 μM): 16.2%
cytotoxicity at 48 h, 1000 µM ([4]; 1000 μM): 18.3%
cytotoxicity (HaCaT cells): non-cytotoxic
cytotoxicity at 48 h, 0.01 µM ([5]; 0.01 μM): -21.6%
cytotoxicity at 48 h, 0.1 µM ([5]; 0.1 μM): -10.7%
cytotoxicity at 48 h, 1 µM ([5]; 1 μM): -8.29%
cytotoxicity at 48 h, 10 µM ([5]; 10 μM): -17.1%
cytotoxicity at 48 h, 50 µM ([5]; 50 μM): -21.8%
cytotoxicity at 48 h, 100 µM ([5]; 100 μM): -21.9%
cytotoxicity at 48 h, 500 µM ([5]; 500 μM): 14%
cytotoxicity at 48 h, 1000 µM ([5]; 1000 μM): 16.6%
cytotoxicity (HFF-1 cells): non-cytotoxic
cytotoxicity at 24 h, 0.01 µM ([6]; 0.01 μM): 5.84%
cytotoxicity at 24 h, 0.1 µM ([6]; 0.1 μM): 1.73%
cytotoxicity at 24 h, 1 µM ([6]; 1 μM): 11.4%
cytotoxicity at 24 h, 10 µM ([6]; 10 μM): 13.8%
cytotoxicity at 24 h, 50 µM ([6]; 50 μM): 3.85%
cytotoxicity at 24 h, 100 µM ([6]; 100 μM): 2.79%
cytotoxicity at 24 h, 500 µM ([6]; 500 μM): 17.5%
cytotoxicity at 24 h, 1000 µM ([6]; 1000 μM): 12.7%
cytotoxicity (Ea.hy926 cells): non-cytotoxic
local reactions at the injection sites (Hanford miniature swine; subcutaneously administered esmolol (30 mg/kg once or twice daily) plus topical Galnobax): moderate to severe local reactions
ovary weights (Hanford miniature swine; subcutaneously administered esmolol plus topical Galnobax, no histopathologic changes): reduction in absolute and relative ovary weights
Cmax of the approved human dose [7]: 868–1,470 ng/ml
